The source of these data is ChEMBL document CHEMBL3596094, “Nucleoside Diphosphate Prodrugs: Nonsymmetric DiPPro-Nucleotides” (J Med Chem, 2015).

The test system of data set [1] is Human immunodeficiency virus 1. Briefly: Antiviral activity against HIV1 3B infected in human CEM/0 cells assessed as reduction in virus-induced giant cell formation incubated for 4 to 5 days. Format: functional, organism-based. The conditions noted are these: Human immunodeficiency virus 1, 3B, CCRF-CEM.
Data set [2] relates to Human immunodeficiency virus 2. Kind of data set: Antiviral activity against HIV2 ROD infected in human CEM/0 cells assessed as reduction in virus-induced giant cell formation incubated for 4 to 5 days. Format: functional, organism-based. To be noted: Human immunodeficiency virus 2, ISOLATE ROD, CCRF-CEM.
Data set [3] deals with Human immunodeficiency virus 2. Briefly: Antiviral activity against HIV2 ROD infected in human thymidine kinase deficient CEM/TK- cells assessed as reduction in virus-induced giant cell formation incubated for 4 to 5 days. Format: functional, organism-based. To be noted: Human immunodeficiency virus 2, ISOLATE ROD.
Data set [4] in a line: Cytotoxicity against human CEM/0 cells assessed as reduction in cell proliferation incubated for 4 to 5 days. To be noted: CEM/0 cells.
The nature of data set [5]: Drug metabolism in human CEM/0 cell extracts assessed as increase in NDP/NMP ratio by HILIC-HPLC method. To be noted: ccrf-cem. The class given is ADME, cell-based.
Data set [6] is described as follows: Half life in pH 7.3 PBS incubated at 37 degC by RP-18-HPLC method. The class given is physicochemical.
Data set [7] is described as follows: Half life in human CEM/0 cell extracts incubated at 37 degC by RP-18-HPLC method. Format: ADME, CCRF-CEM.
The nature of data set [8]: Half life in pH 7.3 RPMI medium incubated at 37 degC by RP-18-HPLC method. Format: physicochemical.
A short description of data set [9]: Half life in presence of pig liver esterase assessed as half life for DiPPro-NDP by RP-18-HPLC method. Format: ADME.
Data set [10] is described as follows: Half life in presence of pig liver esterase assessed as half life for hydrolysis R1 intermediate by RP-18-HPLC method. The class given is ADME. The conditions noted are these: isolated protein.
Data set [11] can be described thus: Drug metabolism in human CEM/0 cell extracts assessed as increase in NDP/NMP ratio after 10 hrs by HILIC-HPLC method. Format: ADME. To be noted: ccrf-cem.

Structures are written as SMILES. Where only a bound is given, the exact number is not on record here.

For `CCCCC(=O)Oc1ccc(COP(=O)(OCc2ccc(OC(=O)CCCC)cc2)OP(=O)(O)OC[C@H]2O[C@@H](n3cc(C)c(=O)[nH]c3=O)C[C@@H]2N=[N+]=[N-])cc1.N`, the EC50 is 11 nM in data set [1], 54 nM in data set [2] and above 10000 nM in [3]. Besides, the CC50 in [4] stood at 60000 nM. Also, the Drug metabolism entry in data set [5] is “metabolite_detected”.
With `CCCCCCCCCC(=O)Oc1ccc(COP(=O)(OCc2ccc(OC(=O)CCCC)cc2)OP(=O)(O)OC[C@H]2O[C@@H](n3cc(C)c(=O)[nH]c3=O)C[C@@H]2N=[N+]=[N-])cc1.N` (stereo partly drawn), the half-life in [6] is 50 h; in [7], 1 h; in data set [8], 77 h; in data set [9], 16.2 s. Also, in data set [10], the t1/2 was 0.317 h. In addition, the figures for the concentration for a half-maximal effect (EC50) in data set [1], in data set [2] and in data set [3] were 34 nM, 290 nM and 10000 nM, respectively. Further, in data set [4], the half-maximal cytotoxic concentration (CC50) is 41000 nM.
Consider `CCCCCCC(=O)Oc1ccc(COP(=O)(OCc2ccc(OC(=O)CCCCCC)cc2)OP(=O)(O)OC[C@H]2O[C@@H](n3cc(C)c(=O)[nH]c3=O)C[C@@H]2N=[N+]=[N-])cc1.N`, for which the EC50 in data set [1] is 16 nM; in data set [2], 58 nM; in [3], above 10000 nM. Moreover, the CC50 in data set [4] came to 47000 nM. Also, the Drug metabolism entry in data set [5] is “metabolite_detected”.
As for `CCCCCCCCCC(=O)Oc1ccc(COP(=O)(OCc2ccc(OC(C)=O)cc2)OP(=O)(O)OC[C@H]2O[C@@H](n3cc(C)c(=O)[nH]c3=O)C[C@@H]2N=[N+]=[N-])cc1.N` (stereo partly drawn), the half-life in data set [6] was 35 h; in data set [7], 0.04 h; in data set [8], 19 h; in data set [9], 27 s. For the same molecule, the concentration for a half-maximal effect (EC50) in [1] was 16 nM; in [2], 140 nM; in data set [3], above 10000 nM. In data set [4], the CC50 stood at 20000 nM. In addition, in [11], the Drug metabolism result is on record as “metabolite_detected”.

The term EC50 denotes the concentration at which the effect is half-maximal. By CC50 is commonly meant the concentration that lowers cell viability or growth by half. For orientation: half-life means how long it takes for the measured level to halve.
